Results on 4 molecules are retold here after article PMC11343458, “Extracellular proteolysis of tandemly duplicated pheromone propeptides affords additional complexity to bacterial quorum sensing” (PLOS Biology, 2024).

For orientation: stoichiometry N means a count of units in the complex or per binding partner. In general, EC50 refers to the concentration giving half of the maximal effect. Low values mean an effect from little substance, high ones a need for much substance.

No end group written: not given here.

For test [1], the system named is Rap^3T. Description: Microscale thermophoresis (MST) of peptide binding to Rap^3T. Set-up: species or system Bacillus phage phi3T. To be noted: MST. As to the method:
Rap^3T was fluorescently labeled with NT-647 amine reactive dye from the Monolith NT Protein Labeling kit RED-NHS (NanoTemper Technologies) according to the manufacturer’s instructions. Briefly, 100 μm solution of the protein was mixed with 3× dye solution, incubated 30 min in dark, and then purified by gravity in a 5 ml size exclusion column equilibrated with dialysis buffer (20 mM Tris-HCl (pH 8), 250 mM NaCl) supplemented with 0.1% pluronic and 5% glycerol to remove free dye. Rap^105 was fluorescently labeled using His-Tag Labeling Kit RED-tris-NTA 2nd Generation. Briefly, 500 nM of protein was mixed with 5 μm dye in PBS supplemented with 0,02% of tween incubated in dark at room temperature for 30 min and centrifuged at 10,000 g for 10 min at 4°C, transferred to a fresh tube, and used in the assays immediately. Labeled proteins were used at a final optimized concentration of 20 nM in the case of Rap^3T and 250 nM in the case of Rap^105. For the measurements of EC50, a 16-point 2-fold serial dilution (ranged from 2 to 3 × 10^−5 μm) of the peptides were prepared in presence of the corresponding labeled Rap protein. After 15-min incubation at room temperature, samples were filled into standard Capillaries (K005, NanoTemper Technologies) and MST measurements were performed on a Monolith NT.115 (NanoTemper Technologies) in RED channel using 60% to 75% of LED excitation power and medium or high MST power for Rap^3T or Rap^105, respectively. […] Data analyses were performed with M.O. Affinity Analysis software (NanoTermper Technologies) applying cooperative (Hill coefficient) and non-cooperative (Kd model) models, with the first one yielding better fitting values.

Test [2] has as its system extracellular proteases in supernatants of B. subtilis 168, WB800 and individual protease mutants. Description: Peptide maturation assay with B. subtilis supernatants, read by Rap^3T thermal shift. In kind it is biochemical, Bacillus subtilis. Particulars: 100 μm peptide. As to the method: Overnight cultures of either B. subtilis strains 168, WB800, Δmpr, Δbpr, ΔaprE, Δepr, ΔwprA, Δvpr, ΔnprB, ΔnprE in GM1 media were diluted 1:20 into GM1 media and incubated at 37°C at 250 rpm. […] After incubation, reaction was stopped by incubation at 95°C for 5 min and sample was kept and used in Thermal Shift Assays (see before). In the kinetic assays, samples were inactivated at different times by incubation at 95°C for 5 min. Experiments were validated by experimental triplicates of 3 biological replicates.
The thermal shift assay was conducted in a CFX Opus Real-Time PCR system (Biorad). Samples of 20 μl containing 20× Sypro Orange (Sigma-Aldrich) and 50 μm of protein in a 20 mM Tris (pH 8) and 250 mM NaCl buffer or filtered supernatant in peptide maturation assays (see below) were loaded in 96-well PCR plates. In the cases where peptide interaction was analyzed, synthetic peptides at a final concentration of 100 μm were added to the assays. Samples were heated from 20 to 85°C in steps of 1 degree. Fluorescent intensity was plotted versus temperature and integrated with either CFX Opus Real-Time PCR automate model or GraphPad Prism software using a Boltzmann model to calculate melting temperatures.

For test [3], the system named is WprA and Bpr proteases (B. subtilis supernatants). Description: Kinetic (time course) maturation assay of Imat1^3T in 168, WprA and Bpr KO supernatants. Particulars: samples inactivated at different times, Rap^3T thermal shift. In kind it is biochemical, Bacillus subtilis. The text has this:
Fig 2 Propeptide maturation of Phr^3T and Phr^105 propeptides. Thermal shift assay experiments for maturation effect of supernatants from B. subtilis 168 and WB800 strains in immature version of the pheromones codified in Phr^3T (a) and Phr^105 (e), mean values of triplicates are plotted, 3 standard deviations from negative control maturation (WB800 supernatant) are highlighted in red. Error bars mark from the minimum to maximum values observed in the triplicates. Thermal shift assays with supernatants from B. subtilis 168, WB800, and individual protease mutant strains in maturation of peptides Imat2^3T(b), Imat1^105 (f), Imat2^105 (g) and Imat3^105 (h), mean values of triplicates are plotted, 3 standard deviations from negative control maturation (WB800 supernatant) are highlighted in red. Error bars mark from the minimum to maximum values observed in the triplicates. (c) Thermal shift slopes of the effect of individual mutations of 8 protease genes on Imat1^3T peptide maturation. (d) Kinetic assays comparing Imat1^3T peptide maturation in 168 supernatant and supernatants of WprA and Bpr protease KO mutants, relative maturation was calculated as fluorescence of the peak corresponding with the mature pheromone divided by the fluorescence of the peak corresponding with the non-maturated pheromone. […]

In test [4] the test system is Rap^BA3. To be noted: Rap^BA3 overexpression; cited from earlier work.
Test [5] has as its target Rap^3T (Bacillus phage phi3T). Description: SEC-MALS; Rap^3T at 1 mg/ml, 50 mM Hepes (pH 7), 150 mM NaCl; apo, or preincubated with 100 μm pheromone (SRGHTS or RRGHTA) with 10 μm pheromone in the mobile phase. On the technique in general: Size exclusion chromatography separates by hydrodynamic size, large species first.
Test [6] has as its target T1, Rap^105 labelled through its His tag (MST) (Bacillus phage phi105).
T1 chain: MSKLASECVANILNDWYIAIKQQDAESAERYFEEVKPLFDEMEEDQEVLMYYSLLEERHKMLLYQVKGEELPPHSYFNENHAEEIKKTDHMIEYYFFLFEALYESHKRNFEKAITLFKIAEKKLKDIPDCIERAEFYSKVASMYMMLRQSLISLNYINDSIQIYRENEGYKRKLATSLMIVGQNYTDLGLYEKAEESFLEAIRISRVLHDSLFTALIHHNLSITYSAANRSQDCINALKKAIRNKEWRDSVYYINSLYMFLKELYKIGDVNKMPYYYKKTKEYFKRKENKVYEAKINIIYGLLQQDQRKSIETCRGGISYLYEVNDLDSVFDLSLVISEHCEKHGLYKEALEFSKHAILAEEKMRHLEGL
In words: MST.

Test [7] addresses Rap^105 (Bacillus phage phi105). Description: thermal shift assay; Sypro Orange, 50 μm protein, 100 μm synthetic peptide, 20 mM Tris (pH 8), 250 mM NaCl (or filtered supernatant in the maturation assays), heated from 20 to 85°C.
Test [8] addresses Rap^105 labelled through its His tag (MST) (Bacillus phage phi105). In words: MST; Rap^105 labelled with RED-tris-NTA on the His tag at 250 nM; peptide in a 16-point 2-fold dilution from 2 to 3 x 10^-5 μm; PBS with 0,02% tween; 15 min at room temperature; Hill model.

In the case of RRGHTASIGFTDGHSYDIA [Imat1^3T], in test [1], the “binding to Rap^3T (MST), in words” value was “weak affinity”. For the same molecule, the “maturation by B. subtilis 168 supernatant (Rap^3T thermal shift)” value in test [2] (1 h room temperature in filtered supernatant (GM1, OD600 0.5), stopped 95°C 5 min) is given as “effectively processed”. Further, the “maturation by supernatants of individual protease mutants of B. subtilis 168 (Rap^3T thermal shift)” value in test [2] (1 h room temperature, 8 single protease mutants) was “the supernatants from the ΔwprA and Δbpr mutants showed 2 slopes”. Moreover, the “maturation by B. subtilis WB800 (protease-deficient) supernatant (Rap^3T thermal shift)” value in test [2] (1 h room temperature, strain mutant in nprE, nprB, aprE, epr, bpr, mpr, vpr, wrpA) was “no increase in Rap^3T stabilization was observed”. Also, in test [3], the “time course maturation with Δbpr supernatant” value is “fully mature the peptide at longer incubation times” and the “time course maturation with ΔwprA supernatant” value was “minimal maturation levels even at these times”.

With “RRGQT [peptide that relieves Rap^BA3 repression in previous work]”, the “relief of Rap^BA3 repression of sporulation and competence” value in test [4] is recorded as “repression is relieved”.

As to Rap^3T (receptor), the stoichiometry N in test [5] worked out at 2.

ERPVGT: the EC50 in test [6] is 38.2 nM; in test [8] it was 34 nM. Further, in test [7], the stabilization of the denaturation temperature is 9 degrees.
